ChEMBL document CHEMBL1201862, “PubChem BioAssay data set” (2004)
Where a name gives a salt, the structure may show the parent alone.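 Cells were grown in 96-well plates and exposed to each compound for 48 hours at five concentrations; endpoints were interpolated linearly between bracketing concentrations, or set to the highest concentration if not reached. Abbreviation: GI50, concentration required for 50% inhibition of growth.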 Active and inactive are the calls of the source. Rule as the data show it: active = GI50 up to about 1.1 µM and inactive = higher.

Tests used:
Assay in all cases: NCI-60 cell line screen, 48 h
UACC-257 = test system: UACC-257
786-0 = test system: 786-0
COLO 205 = test system: COLO 205
OVCAR-5 = test system: OVCAR-5
OVCAR-4 = test system: OVCAR-4
CCRF-CEM = test system: CCRF-CEM
MDA-MB-435 = test system: MDA-MB-435
HCT-15 = test system: HCT-15
DU-145 = test system: DU-145
NCI/ADR-RES = test system: NCI/ADR-RES
MOLT-4 = test system: MOLT-4
SF-539 = test system: SF-539
LOX IMVI = test system: LOX IMVI
SW-620 = test system: SW-620
SK-MEL-5 = test system: SK-MEL-5
NCI-H226 = test system: NCI-H226
OVCAR-8 = test system: OVCAR-8
HL-60 = test system: HL-60
SR = test system: SR

| Compound | GI50 (UACC-257) | GI50 (786-0) | GI50 (COLO 205) | GI50 (OVCAR-5) | GI50 (OVCAR-4) | GI50 (CCRF-CEM) | GI50 (MDA-MB-435) | GI50 (HCT-15) [µM] | GI50 (DU-145) | GI50 (NCI/ADR-RES) | GI50 (MOLT-4) | GI50 (SF-539) | GI50 (LOX IMVI) | GI50 (SW-620) | GI50 (SK-MEL-5) | GI50 (NCI-H226) | GI50 (OVCAR-8) | GI50 (HL-60) | GI50 (SR) |
| --- | --- | --- | --- | --- | --- | --- | --- | --- | --- | --- | --- | --- | --- | --- | --- | --- | --- | --- | --- |
| CC1(C)O[C@@H](CP(c2ccccc2)c2ccccc2)[C@H](CP(c2ccccc2)c2ccccc2)O1 | 6.98 µM (inactive) | 6.15 µM (inactive) | 0.632 µM (active) | 8.81 µM (inactive) | 9.08 µM (inactive) | 2.4 µM (inactive) | 6.03 µM (inactive) | 12.3 | 11.7 µM (inactive) | 12.4 µM (inactive) | 2.69 µM (inactive) | 7 µM (inactive) | 1.82 µM (inactive) | 17.2 µM (inactive) | 5.74 µM (inactive) | 6.52 µM (inactive) | 4.06 µM (inactive) | – | – |
| C1CSCC2(COC2)CSCCSCC2(COC2)CS1 | > 100 µM (inactive) | > 100 µM (inactive) | > 100 µM (inactive) | > 100 µM (inactive) | > 100 µM (inactive) | > 100 µM (inactive) | > 100 µM (inactive) | > 100 | > 100 µM (inactive) | > 100 µM (inactive) | > 100 µM (inactive) | > 100 µM (inactive) | > 100 µM (inactive) | > 100 µM (inactive) | > 100 µM (inactive) | – | > 100 µM (inactive) | > 100 µM (inactive) | > 100 µM (inactive) |
| CCOC(=O)C(=O)Nc1ccc(Cl)c(C(F)(F)F)c1 | > 100 µM (inactive) | > 100 µM (inactive) | > 100 µM (inactive) | > 100 µM (inactive) | > 100 µM (inactive) | > 100 µM (inactive) | – | > 100 | – | – | > 100 µM (inactive) | > 100 µM (inactive) | > 100 µM (inactive) | > 100 µM (inactive) | > 100 µM (inactive) | > 100 µM (inactive) | > 100 µM (inactive) | > 100 µM (inactive) | > 100 µM (inactive) |
| CCOC(=O)c1nc2ccccc2nc1Nc1ccc(Cl)c(Cl)c1 | – | 29.2 µM (inactive) | 67.9 µM (inactive) | > 100 µM (inactive) | 27.9 µM (inactive) | > 10 µM (inactive) | > 100 µM (inactive) | > 100 | > 100 µM (inactive) | > 100 µM (inactive) | > 100 µM (inactive) | 60.5 µM (inactive) | – | – | 21.5 µM (inactive) | – | 29.9 µM (inactive) | 30.8 µM (inactive) | > 100 µM (inactive) |
| CCC(=O)NCC1CCCN2CCCCC12 (stereo not drawn) | > 100 µM (inactive) | > 100 µM (inactive) | > 100 µM (inactive) | – | > 100 µM (inactive) | > 100 µM (inactive) | > 100 µM (inactive) | > 100 | > 100 µM (inactive) | > 100 µM (inactive) | > 100 µM (inactive) | > 100 µM (inactive) | > 100 µM (inactive) | > 100 µM (inactive) | > 100 µM (inactive) | > 100 µM (inactive) | > 100 µM (inactive) | > 100 µM (inactive) | – |
| O=C(O)/C(Cc1ccc([N+](=O)[O-])cc1)=N\O | > 100 µM (inactive) | > 100 µM (inactive) | > 100 µM (inactive) | > 100 µM (inactive) | 89.5 µM (inactive) | 73.6 µM (inactive) | > 100 µM (inactive) | > 100 | > 100 µM (inactive) | > 100 µM (inactive) | – | > 100 µM (inactive) | > 100 µM (inactive) | > 100 µM (inactive) | > 100 µM (inactive) | > 100 µM (inactive) | > 100 µM (inactive) | 61.9 µM (inactive) | – |
| CCCCCCc1cc(C(=O)Nc2cccc(C(F)(F)F)c2)nc(N)n1 | > 100 µM (inactive) | > 100 µM (inactive) | > 100 µM (inactive) | > 100 µM (inactive) | > 100 µM (inactive) | > 100 µM (inactive) | – | > 100 | – | – | > 100 µM (inactive) | > 100 µM (inactive) | > 100 µM (inactive) | > 100 µM (inactive) | > 100 µM (inactive) | > 100 µM (inactive) | – | > 100 µM (inactive) | > 100 µM (inactive) |
| Cc1nc2c(ccc3ncccc32)[nH]1 | > 100 µM (inactive) | > 100 µM (inactive) | > 100 µM (inactive) | > 100 µM (inactive) | > 100 µM (inactive) | > 100 µM (inactive) | – | > 100 | – | – | > 100 µM (inactive) | > 100 µM (inactive) | > 100 µM (inactive) | > 100 µM (inactive) | > 100 µM (inactive) | – | > 100 µM (inactive) | > 100 µM (inactive) | – |
| O=C(OCCN1CCCCCC1)C(c1ccsc1)C1CCCCC1 (stereo not drawn) [CETIEDIL CITRATE] | 18.8 µM (inactive) | 16.5 µM (inactive) | 10.5 µM (inactive) | 17.3 µM (inactive) | – | 15.7 µM (inactive) | 16.9 µM (inactive) | 14.4 | 16.6 µM (inactive) | 15.7 µM (inactive) | 21.4 µM (inactive) | 16.8 µM (inactive) | 17.1 µM (inactive) | 16.6 µM (inactive) | – | – | 18.6 µM (inactive) | 24.5 µM (inactive) | 26.6 µM (inactive) |
| Cc1ccc(S(=O)(=O)NC(=O)NC(CC(N)=O)C(=O)O)cc1 (stereo not drawn) | > 100 µM (inactive) | > 100 µM (inactive) | > 100 µM (inactive) | > 100 µM (inactive) | > 100 µM (inactive) | > 100 µM (inactive) | – | > 100 | > 100 µM (inactive) | > 100 µM (inactive) | > 100 µM (inactive) | > 100 µM (inactive) | > 100 µM (inactive) | > 100 µM (inactive) | > 100 µM (inactive) | – | > 100 µM (inactive) | > 100 µM (inactive) | > 100 µM (inactive) |
| COc1ccc(/C=C2/CCCC/C2=N/O)cc1 | > 100 µM (inactive) | > 100 µM (inactive) | > 100 µM (inactive) | > 100 µM (inactive) | 69.5 µM (inactive) | 51.6 µM (inactive) | – | > 100 | – | – | 42.2 µM (inactive) | > 100 µM (inactive) | 29.6 µM (inactive) | > 100 µM (inactive) | – | – | > 100 µM (inactive) | > 100 µM (inactive) | – |
| Cc1cc(S(=O)(=O)Nc2cc(N)n[nH]2)c(SCc2nc(N)nc(N(C)C)n2)cc1Cl | > 10 µM (inactive) | > 10 µM (inactive) | > 10 µM (inactive) | > 10 µM (inactive) | > 10 µM (inactive) | > 10 µM (inactive) | – | > 10 | > 10 µM (inactive) | > 10 µM (inactive) | > 10 µM (inactive) | > 10 µM (inactive) | > 10 µM (inactive) | > 10 µM (inactive) | > 10 µM (inactive) | > 10 µM (inactive) | > 10 µM (inactive) | > 10 µM (inactive) | > 10 µM (inactive) |
| c1ccc2c(c1)C1CCCCCC21N1CCOCC1 (stereo not drawn) | > 100 µM (inactive) | > 100 µM (inactive) | > 100 µM (inactive) | > 100 µM (inactive) | 91 µM (inactive) | 97.7 µM (inactive) | – | 52 | – | – | 32.6 µM (inactive) | > 100 µM (inactive) | > 100 µM (inactive) | > 100 µM (inactive) | 44.2 µM (inactive) | 92.9 µM (inactive) | > 100 µM (inactive) | 44.6 µM (inactive) | – |
